Assay results taken from ChEMBL document CHEMBL1201862, “PubChem BioAssay data set” (2004).
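Assay format: 96-well plates, 48-hour exposure. At the GI50, growth is halved.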 Activity calls are given as the source filed them. Cut-off read from the data, not from the text of the source: active = GI50 up to about 1.1 µM and inactive = higher.

Experiments:
Assay in all cases: NCI-60 cell line screen, 48 h
786-0 = system: 786-0
A498 = system: A498
ACHN = system: ACHN
COLO 205 = system: COLO 205
DU-145 = system: DU-145
HOP-62 = system: HOP-62
Hs-578T = system: Hs-578T
KM12 = system: KM12
MDA-MB-231 = system: MDA-MB-231
MDA-MB-435 = system: MDA-MB-435
NCI-H226 = system: NCI-H226
NCI-H23 = system: NCI-H23
NCI-H460 = system: NCI-H460
SF-268 = system: SF-268
SK-MEL-2 = system: SK-MEL-2
U-251 = system: U-251
UACC-62 = system: UACC-62
LOX IMVI = system: LOX IMVI
OVCAR-8 = system: OVCAR-8
MCF7 = system: MCF7

Measured: GI50

Cc1c(/C=N\NC(=S)NCCNC(=S)N/N=C\c2c(C)n(C)n(-c3ccccc3)c2=O)c(=O)n(-c2ccccc2)n1C
inactive: 786-0 > 100 µM | A498 > 100 µM | ACHN > 100 µM | COLO 205 > 100 µM | DU-145 > 100 µM | HOP-62 > 100 µM | Hs-578T > 100 µM | KM12 > 100 µM | MDA-MB-231 54.8 µM | MDA-MB-435 92.5 µM | NCI-H226 > 100 µM | NCI-H23 > 100 µM | NCI-H460 > 100 µM | SF-268 > 100 µM | SK-MEL-2 22.4 µM | U-251 > 100 µM | UACC-62 > 100 µM

CCN(CC)C(=S)SS(=O)(=O)c1ccc(NC(C)=O)cc1
inactive: 786-0 17.5 µM | A498 > 55.6 µM | ACHN 36.1 µM | COLO 205 25.6 µM | DU-145 22.6 µM | HOP-62 18.1 µM | Hs-578T 45 µM | KM12 55.8 µM | LOX IMVI 15.9 µM | MDA-MB-231 17 µM | MDA-MB-435 17.1 µM | NCI-H226 > 59.7 µM | NCI-H23 24 µM | NCI-H460 26.2 µM | OVCAR-8 15.7 µM | SF-268 28.9 µM | SK-MEL-2 41.7 µM | U-251 18 µM | UACC-62 19.9 µM

COc1ccc2oc(=O)c(-c3cc4c(c(C)n3)c(=O)oc3ccc(OC)cc34)cc2c1
inactive: 786-0 1.94 µM | ACHN 27.2 µM | COLO 205 > 100 µM | DU-145 > 100 µM | HOP-62 30.4 µM | Hs-578T 27.4 µM | KM12 > 100 µM | LOX IMVI > 100 µM | MCF7 > 100 µM | MDA-MB-231 > 100 µM | MDA-MB-435 > 100 µM | NCI-H226 > 100 µM | NCI-H23 > 100 µM | NCI-H460 > 100 µM | OVCAR-8 > 100 µM | SF-268 55.8 µM | SK-MEL-2 > 100 µM | U-251 > 100 µM | UACC-62 35.8 µM

N#Cc1nc(CCCN2C(=O)c3ccccc3C2=O)oc1N
inactive: 786-0 > 100 µM | ACHN > 100 µM | COLO 205 > 100 µM | DU-145 > 100 µM | HOP-62 > 100 µM | Hs-578T > 100 µM | LOX IMVI > 100 µM | MCF7 > 100 µM | MDA-MB-231 > 100 µM | MDA-MB-435 > 100 µM | NCI-H226 > 100 µM | NCI-H23 > 100 µM | NCI-H460 > 100 µM | OVCAR-8 > 100 µM | SF-268 > 100 µM | SK-MEL-2 > 100 µM | U-251 > 100 µM

CN(CC(=O)Nc1ccccc1C(=O)O)c1ccccc1
inactive: 786-0 > 100 µM | A498 > 100 µM | ACHN > 100 µM | DU-145 > 100 µM | HOP-62 > 100 µM | Hs-578T > 100 µM | KM12 > 100 µM | LOX IMVI > 100 µM | MCF7 > 100 µM | MDA-MB-231 > 100 µM | NCI-H226 > 100 µM | NCI-H23 > 100 µM | NCI-H460 > 100 µM | OVCAR-8 > 100 µM | SF-268 > 100 µM | U-251 > 100 µM

COc1ccc2[nH]cc(CCNC(=O)[C@H](Cc3ccccc3)NC(=O)[C@@H](NCC(F)(F)F)C(C)C)c2c1
inactive: 786-0 18.1 µM | ACHN 28.2 µM | COLO 205 17.9 µM | DU-145 18.3 µM | HOP-62 14.8 µM | Hs-578T 18.6 µM | KM12 18.5 µM | LOX IMVI 22.1 µM | MCF7 17.9 µM | MDA-MB-231 18.5 µM | MDA-MB-435 19.8 µM | NCI-H226 21.4 µM | NCI-H23 25.3 µM | NCI-H460 20.1 µM | OVCAR-8 23.3 µM | SK-MEL-2 19.4 µM | U-251 21.4 µM | UACC-62 19.1 µM

C=CCC1(C(=O)OC)CCC/C(=N\O)C1 (stereo not given)
inactive: 786-0 > 10 µM | ACHN > 10 µM | COLO 205 > 10 µM | DU-145 > 10 µM | HOP-62 > 10 µM | Hs-578T > 10 µM | KM12 > 10 µM | LOX IMVI > 10 µM | MCF7 > 10 µM | MDA-MB-231 > 10 µM | MDA-MB-435 > 10 µM | NCI-H23 > 10 µM | OVCAR-8 > 10 µM | SF-268 > 10 µM | U-251 > 10 µM | UACC-62 > 10 µM

Cc1ccc(/C=C2/N/C(=N\N=C/c3ccccc3)NC2=O)cc1
inactive: 786-0 20.3 µM | ACHN 17.3 µM | COLO 205 56.5 µM | DU-145 55.1 µM | HOP-62 54.6 µM | Hs-578T 25.8 µM | KM12 > 100 µM | LOX IMVI 39.1 µM | MCF7 28.8 µM | MDA-MB-231 42.1 µM | MDA-MB-435 24.2 µM | NCI-H226 > 100 µM | NCI-H23 54.2 µM | NCI-H460 31.6 µM | OVCAR-8 42.5 µM | SF-268 77.1 µM | SK-MEL-2 39.4 µM | U-251 26 µM
